The conditions of data set [1]: mouse, in vivo.
For data set [2] the following is noted: cynomolgus monkey, in vivo, po; for AUC0->24 h / CL / t1/2 / tmax / Cmax: 0.4 mmol/kg.
Data set [3] is described as follows: in vitro. As to conditions: human, microsomes.
A short description of data set [4]: in vitro. As to conditions: monkey, microsomes.
Data set [5] is described as follows: in vitro. As to conditions: rat, microsomes.
In data set [6] the test system is Influenza A/California/07/2009 (H1N1). Set-up: species or system ferrets. As to conditions: in vivo, po.
A short description of data set [7]: in vitro. As to conditions: dog, microsomes.
The subject of data set [8] is Influenza A/Wisconsin/67/2005 (H3N2). Also noted: species or system ferrets. As to conditions: in vivo.
A short description of data set [9]: in vitro. The note with it: mouse, microsomes.

Each structure is given as a SMILES string. Like-named read-outs stand apart in the source and are kept apart here.

For `O=c1nc(NO)ccn1[C@@H]1O[C@H](COP(=O)(O)OP(=O)(O)OP(=O)(O)O)[C@@H](O)[C@H]1O` [EIDD-2061], the “AUC0->t” value with Huh-7 cells amounted to 14640 pmol · h/M cells; in the data set on HepG2 cells, 299.8 pmol · h/M cells; in the data set on Vero cells, 13850 pmol · h/M cells; with CEM cells, 2355 pmol · h/M cells. Also, the Cmax amounted to 1113.3 pmol/M Cells in the data set with Huh-7 cells, 470.3 pmol/M Cells in the data set with HepG2 cells, 872.0 pmol/M Cells with Vero cells and 171.3 pmol/M Cells in the data set with CEM cells. For the same compound, the tmax was determined as 1440 min in the data set with Huh-7 cells, 960 min in the data set with HepG2 cells, 960 min in the data set on Vero cells and 1440 min in the data set on CEM cells. The “Brain Cmax” value in [1] (225 mg/kg) is listed as 3.5 nmol/g; in data set [1] (750 mg/kg), 5.5 nmol/g.

Usually half-life stands for the time needed for the level to fall by half in the phase considered. Regarding `CC(C)C(=O)OC[C@H]1O[C@@H](n2ccc(NO)nc2=O)[C@H](OC(=O)C(C)C)[C@@H]1OC(=O)C(C)C` [EIDD-2800], in data set [2] (female), the F is ~16%, the “AUC0->24 h” value is 27.4 ± 11.5 µM·h, the CL stood at 265 ± 128 mL/min/kg and the t1/2 is 264 ± 72 min. Also, the tmax in data set [2] (female) was 18.6 ± 7.2 min. Also, in data set [2] (male), the “AUC0->24 h” value was 38.9 ± 7.58 µM·h, the CL amounted to 152 ± 21.7 mL/min/kg, the t1/2 came to 330 ± 252 min and the tmax amounted to 22.2 ± 8.4 min. Besides, the “Plasma t1/2” value in the data set “Plasma stability, human” stood at 1 min. Besides, the “Plasma t1/2” value in “Plasma stability, monkey” is given as 2 min. Also, in the data set “Plasma stability, mouse”, the “Plasma t1/2” value is given as 1 min. Further, the half-life in the data set “in vitro [3]” worked out at 1 min. The same compound had a half-life in the data set “in vitro [4]” of 2 min.

In turn, `CC(C)C(=O)OC[C@H]1O[C@@H](n2ccc(NO)nc2=O)[C@H](O)[C@@H]1O` [EIDD-2801] showed a half-life in the data set “in vitro [5]” of 5 min. In data set [6], the Fever entry is reported as “completely avoided”; the “Viral titers in nasal lavage samples” value is recorded as “greatly reduced”; the “viral titers in nasal lavage samples and fever” value is reported as “rapidly reduce viral titers in nasal lavage samples as well as fever”. For the same compound, the half-life in “in vitro [7]” was 1 min. In data set [2] (female), the F was ~26%, the “AUC0->24 h” value is 43.8 ± 17.0 µM·h, the CL stood at 172 ± 93.3 mL/min/kg and the Cmax amounted to 12.3 ± 2.33 µM. Besides, in [2] (female), the t1/2 was 114 ± 78 min and the tmax is 75 ± 30 min. Also, in data set [2] (male), the “AUC0->24 h” value was 31.7 ± 7.82 µM·h, the CL amounted to 217 ± 61.7 mL/min/kg, the Cmax was 8.08 ± 1.32 µM and the t1/2 was 108 ± 54.6 min. Also, in [2] (male), the tmax worked out at 120 ± 48.6 min. Also, the “viral titers in nasal lavage and turbinates” value in data set [8] (20 mg/kg) is recorded as “greatly reduced”. Moreover, the “Viral titers in nasal lavage, fever, and viral titers in turbinates” value in data set [8] (100 mg/kg) was “greatly reduced”. For the same compound, in “in vitro [9]”, the half-life amounted to 2 min. In “in vitro [3]”, this compound yielded a half-life of 73 min. Also, in “in vitro [4]”, the half-life is 1 min.

In the case of `CC(C)[C@H](N)C(=O)OC[C@H]1O[C@@H](n2ccc(NO)nc2=O)[C@H](O)[C@@H]1O` [EIDD-2898], in data set [2], the F was ~15%. Besides, the “F*” value in data set [2] was ~18%. The “Plasma t1/2” value in the data set “Plasma stability, human” is reported as 198 min; in the data set “Plasma stability, monkey”, 138 min; in the data set “Plasma stability, mouse”, 144 min.
